# Test results published in patent EP0526502B1, “PHENOLIC AMINE DEPIGMENTING AND ANTIMELANOMA AGENTS” (The Governors of the University of Alberta, priority 1990, dated 1991).
# Legend:
# Mushroom tyrosinase = Mushroom tyrosinase (Agaricus bisporus, UniProt C7FF04); assay: Enzyme kinetics with tyrosinase (substrate disappearance by HPLC, Lineweaver-Burk); format: biochemical; details: result in words
# Experimental: (§1) Mushroom tyrosinase (400 units/mg) and plasma MAO (1000 units/gm) were obtained from Sigma Chemical Co. (St. Louis, MO, USA). A reaction mixture consisted of a substrate of 7 to 8 different concentrations (40 to 500 »M for mushroom tyrosinase and 20 to 200 »M for MAO) and of either mushroom tyrosinase (2.5 »g) or MAO (10 »g) in 1.0 mL of 0.05 M sodium phosphate buffer, pH 6.8 and 7.4 respectively. The reactions were carried out at 37°C in a shaking water bath, and stopped by taking 100 »L of the reaction mixture and adding it to 900 »L of 0.4 M HCLO₄. The disappearance of substrate was followed using HPLC (high pressure liquid chromatography) Km and Vmax values were calculated from the Lineweaver-Burk plots.
# plasma MAO = target: T1, plasma MAO (Bos taurus, UniProt Q29437); assay: Enzyme kinetics with monoamineoxidase (substrate disappearance by HPLC, Lineweaver-Burk); format: biochemical; details: result in words
# T1 construct: purchased Sigma Chemical Co. (St. Louis, MO, USA)
# T1 sequence (Q29437 17-762): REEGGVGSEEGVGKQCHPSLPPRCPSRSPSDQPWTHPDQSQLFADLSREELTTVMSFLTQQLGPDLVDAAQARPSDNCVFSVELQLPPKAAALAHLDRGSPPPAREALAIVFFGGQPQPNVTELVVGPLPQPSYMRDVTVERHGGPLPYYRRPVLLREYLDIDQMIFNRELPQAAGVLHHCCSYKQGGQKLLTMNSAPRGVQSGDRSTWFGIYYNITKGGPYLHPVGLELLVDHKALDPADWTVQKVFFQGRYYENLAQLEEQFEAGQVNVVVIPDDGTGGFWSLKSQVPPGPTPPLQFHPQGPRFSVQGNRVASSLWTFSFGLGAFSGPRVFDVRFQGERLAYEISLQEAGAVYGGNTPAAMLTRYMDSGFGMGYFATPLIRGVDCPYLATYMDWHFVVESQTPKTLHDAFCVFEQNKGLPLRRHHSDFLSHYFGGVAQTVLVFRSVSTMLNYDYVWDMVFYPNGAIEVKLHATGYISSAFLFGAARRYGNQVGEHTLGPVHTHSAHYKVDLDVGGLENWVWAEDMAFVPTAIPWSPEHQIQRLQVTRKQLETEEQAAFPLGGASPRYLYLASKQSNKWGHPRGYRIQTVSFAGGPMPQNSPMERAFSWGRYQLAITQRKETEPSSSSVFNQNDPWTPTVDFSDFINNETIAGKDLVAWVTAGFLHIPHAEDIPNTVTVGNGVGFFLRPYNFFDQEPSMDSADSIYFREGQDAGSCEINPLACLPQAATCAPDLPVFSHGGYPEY
# Experimental: as §1
# B16 melanoma = assay: In vivo growth inhibition of s.c. inoculated B16 melanoma; design: species or system C57BL/6J mice; details: day 12 or 13
# Experimental: The in vivo antimelanoma effect of the compounds were evaluated by percent growth inhibition of inoculated tumour (%g.i.). The percent g.i. was computed from the mean tumour volume at day 12 or 13 of the experiments; i.e., 100 x (1- treated group/control group). […] To further examine whether a minimal dose of N-Ac-4-S-CAP, 200 mg/Kg has an antimelanoma effect, three groups of mice were treated with N-Ac-4-S-CAP. […] One of the advantages of N-Ac-4-S-CAP over 4-S-CAP was that it had much higher LD⁵⁰ (as high as 1400 mg/Kg of body weight, and therefore a greater range of safety).
# melanocytes = assay: Light and electron microscopy of melanocytes in regrowing hair follicles; format: in vivo, mice
# Experimental: In six groups of 4 mice (1 control and 1 for each compound) were treated daily with the control or compound injected i.p. The compounds tested were 4-S-CAP, N-Ac-4-S-CAP and α-Me-4-S-CAP. Samples of skin and regrowing hair follicles were excised under brief general anaesthesia on day 10 (late anagen phase), fixed in Karnovsky's solution (2.5% glutaraldehyde and 2.5% paraformaldehyde in 0l1 M cacodylate buffer), and refixed in 1% osmium tetroxide in cadodylate buffer. Tissues were stained en bloc with 1.5% uranyl acetate in o.1 M veronal buffer for 30min, dehydrated in graded ethanol solutions, embedded in epoxy resin, and sectioned with a Potter-Blum ultramicrotome MT II. Sections 1.0 »m thick were stained with methylene blue for light microscopy, thin sections were stained with led citrate for electron microscopy.
# [1] = Acute toxicity / lethal dose and maximum tolerable dose
# Experimental: 3:1-85 1972. In accordance with this Protocol, ten to fifteen mice were used in each test group. They were weighed and randomized at day one after s.c. inoculation of B16 melanoma cells. From day five, the phenolic melanin precursors were administered i.p. daily for nine days. The test compounds were dissolved in normal saline, and sterilized by heating to 100°C for 2 minutes. […] They were administered i.p. with the following doses: 400 mg/Kg - 4-S-CAP; 200 to 300 mg/Kg - 4-S-CAP; and 200 to 1200 mg/Kg - N-Ac-4-S-CAP. A catalytic amount of L-dopa, 25 mg/Kg and antidecarboxylase, carbidopa, 400 mg/Kg, were also administered. Carbidopa was given one hour prior to L-dopa administration. DTIC (NSC 4538) was used as a control drug at a dose of 60 mg/Kg. Acute toxicity of 4-S-CP and 4-S-CAP was evaluated from 100 to 1600 mg/Kg.
# The B16 mouse melanoma was maintained by s.c. inoculation of tumour cells into the back of C57BL7J mice (5 to 6 weeks, female). […] Briefly, excised tumours were homogenized in normal saline. The homogenized tumour cells were then passed through a sterile 80 mesh stainless steel screen, washed with normal saline, centrifuged (500 g. for 10 minutes) and resuspended in normal saline. Suspensions of viable melanoma cells at the concentration of 1 x 10⁶ per 0.1 ml were inoculated s.c. into both the right and left inguinal areas of C57BL/6J mice (female, 5 to 6 weeks old, 18 to 20 gm).
# [2] = Experiment I, 200 mg/Kg i.p. daily for nine days
# [3] = Experiment I, 400 mg/Kg i.p. daily for nine days
# [4] = Experiment I, 600 mg/Kg i.p. daily for nine days
# [5] = Experiment I, 800 mg/Kg i.p. daily for nine days
# [6] = Experiment II, 400 mg/Kg i.p. daily for nine days
# [7] = Experiment II, 800 mg/Kg i.p. daily for nine days
# [8] = Experiment II, 1200 mg/Kg i.p. daily for nine days
# Mushroom tyrosinase, sequence (C7FF04 1-392): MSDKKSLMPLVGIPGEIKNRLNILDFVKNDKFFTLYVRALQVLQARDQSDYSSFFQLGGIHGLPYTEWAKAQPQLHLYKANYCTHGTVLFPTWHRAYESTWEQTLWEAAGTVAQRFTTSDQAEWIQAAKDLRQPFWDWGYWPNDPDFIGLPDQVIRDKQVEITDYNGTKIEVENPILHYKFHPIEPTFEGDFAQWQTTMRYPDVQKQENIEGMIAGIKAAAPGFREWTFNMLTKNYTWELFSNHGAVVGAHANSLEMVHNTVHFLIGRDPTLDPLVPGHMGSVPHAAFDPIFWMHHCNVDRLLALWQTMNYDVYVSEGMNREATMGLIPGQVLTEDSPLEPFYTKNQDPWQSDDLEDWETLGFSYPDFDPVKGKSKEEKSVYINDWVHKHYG
smiles,measurement,setting,value
"CC(=O)NCCSc1ccc(O)cc1 [N-Ac-4-S-CAP, N-ACETYL-4-S-CYSTEAMINYLPHENOL]",tyrosinase substrate,Mushroom tyrosinase,is also a tyrosinase substrate
same,substrate for plasma MAO,plasma MAO,"not, however, a substrate for plasma MAO"
same,%Gi,B16 melanoma; [2],39.8%
same,Tumour Volume,B16 melanoma; [2],313 ± 83 mm^3
same,%Gi,B16 melanoma; [3],57.3%
same,Tumour Volume,B16 melanoma; [3],222 ± 13 mm^3
same,%Gi,B16 melanoma; [4],63.18%
same,Tumour Volume,B16 melanoma; [4],192 ± 48 mm^3
same,%Gi,B16 melanoma; [5],74.4%
same,Tumour Volume,B16 melanoma; [5],133 ± 11 mm^3
same,%Gi,"B16 melanoma; Experiment II, 200 mg/Kg i.p. daily for nine days",32.0%
same,%Gi,B16 melanoma; [6],34.0%
same,Tumour Volume,B16 melanoma; [6],359 ± 52 mm^3
same,%Gi,B16 melanoma; [7],63.4%
same,Tumour Volume,B16 melanoma; [7],199 ± 26 mm^3
same,%Gi,B16 melanoma; [8],70.7%
same,Tumour Volume,B16 melanoma; [8],159 ± 23 mm^3
same,light microscopy of hair follicles: functioning melanocytes and melanin pigments,"melanocytes; i.p. daily, day 10 (late anagen phase)",neither functioning melanocytes nor melanin pigments remained in the follicles
same,electron microscopy of hair follicles: melanocytes and melanosomes,melanocytes; i.p. injection for 10 days,no melanocytes or melanosomes were visible
same,lethal dose,"[1]; acute toxicity, mice",1400 mg/kg
same,per single dose toxicity levels,"[1]; experimental tests on animals, single dose","~1,400 mg/kg of body weight"
same,LD50,"[1]; mouse, in vivo, ip",1400 mg/kg
